Where two headings read alike, the source gives them in different places.
How the values were obtained:
[1] = tested on: Escherichia coli expressing NDM-1 (CLB30005, CLB30016); assay type: cell-based; details: with imipenem 1 μg/ml; 95% inhibition of bacterial growth
Outline: (§1)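 Imipenem 1 μg/ml + inhibitor; MBL-expressing clinical strains in 1.1×CAMHB, inoculum from saline suspension diluted 1:100; 35° C, 22–24 h; absorbance read-out.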

[2] = tested on: Klebsiella pneumoniae expressing VIM-1 (IHMA599644); assay type: cell-based; details: with imipenem 1 μg/ml; 95% inhibition of bacterial growth
Outline: as §1

[3] = tested on: Serratia marcescens expressing IMP-1 (CL5741); assay type: cell-based; details: with imipenem 1 μg/ml; 95% inhibition of bacterial growth
Outline: as §1

[4] = tested on: Pseudomonas aeruginosa MB9798 vs MB9799; details: ratio MITC95 PA_9798/MITC95 PA_9799
Outline: (§2)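 PAO1 pair, broth microdilution; fixed β-lactam (imipenem/ceftazidime) at ~CLSI breakpoint + fixed class A/C BLI for AmpC; serial MBLi titration; endpoint = MBLi conc. restoring susceptibility; MB9798:MB9799 ratio = efflux liability.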

VIM-1 = VIM-1 (Pseudomonas aeruginosa (strain ATCC 15692 / DSM 22644 / CIP 104116 / JCM 14847 / LMG 12228 / 1C / PRS 101 / PAO1), UniProt A0A0F7KYQ8); test: biochemical; details: CCF2-FA substrate, 30 pM enzyme, 2 hours at 25° C.
Outline: (§3)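 Test compound, enzyme and the FRET cephalosporin substrate CCF2-FA are incubated together for 2 hours at 25° C. Cleavage is followed by fluorescence, and IC50 values are derived from semi-logarithmic inhibition curves fitted with a 4-parameter model.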

IMP-1 = IMP-1 (Serratia marcescens, UniProt P52699); test: biochemical; assay type: biochemical; details: fluorescence assay, CCF2-FA substrate, 2 pM enzyme, 2 hours at 25° C.; read-out: IMP-1 IC50
Outline: as §3

NDM-1 = NDM-1 (Klebsiella pneumoniae, UniProt C7C422); test: biochemical; assay type: biochemical; details: fluorescence assay, CCF2-FA substrate, 1 pM enzyme, 2 hours at 25° C.; read-out: NDM-1 IC50
Outline: as §3

[5] = tested on: Pseudomonas aeruginosa efflux+ (MB9798), IMP-1; assay type: cell-based; details: concentration restoring susceptibility to imipenem at 2 μg/mL in the presence of a class A, C, D serine β-lactamase inhibitor closely related to relebactam
Outline: as §2

[6] = tested on: Pseudomonas aeruginosa efflux− (MB9799), IMP-1; assay type: cell-based; details: concentration restoring susceptibility to imipenem at 2 μg/mL in the presence of a class A, C, D serine β-lactamase inhibitor closely related to relebactam
Outline: as §2

[7] = fluorescence assay, read-out: VIM-1 IC50

NDM-1, sequence (C7C422 whole entry, looked up, species assumed): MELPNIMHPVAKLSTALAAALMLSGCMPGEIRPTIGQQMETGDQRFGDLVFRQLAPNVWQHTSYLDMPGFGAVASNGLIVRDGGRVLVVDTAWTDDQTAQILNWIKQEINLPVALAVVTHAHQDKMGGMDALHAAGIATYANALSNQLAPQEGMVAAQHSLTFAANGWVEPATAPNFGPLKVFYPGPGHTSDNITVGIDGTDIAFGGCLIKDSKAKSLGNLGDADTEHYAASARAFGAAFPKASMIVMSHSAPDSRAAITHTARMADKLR
IMP-1, sequence (P52699 whole entry, looked up, species assumed): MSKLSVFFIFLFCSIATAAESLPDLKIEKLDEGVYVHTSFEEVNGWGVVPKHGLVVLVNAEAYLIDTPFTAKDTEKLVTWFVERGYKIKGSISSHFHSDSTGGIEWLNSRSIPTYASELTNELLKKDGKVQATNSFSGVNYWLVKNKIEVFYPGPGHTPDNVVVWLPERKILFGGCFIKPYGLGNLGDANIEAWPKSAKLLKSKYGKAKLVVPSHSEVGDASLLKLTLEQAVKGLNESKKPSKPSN

| Compound | Escherichia coli expressing NDM-1 (CLB30016) MITC95 [1] | Klebsiella pneumoniae expressing VIM-1 (IHMA599644) MITC95 [2] | Serratia marcescens expressing IMP-1 (CL5741) MITC95 [3] | Efflux ratio [4] | IC50 (VIM-1; VIM-1 IC50, fluorescence assay) | IC50 (IMP-1) | IC50 (NDM-1) | P. aeruginosa expressing IMP-1, efflux + (MB9798) MITC95 [5] | P. aeruginosa expressing IMP-1, efflux − (MB9799) MITC95 [6] | IC50 (VIM-1; [7]) |
| --- | --- | --- | --- | --- | --- | --- | --- | --- | --- | --- |
| NC[C@@H](CO)NS(=O)(=O)c1ccc(-c2cccc3sc(N)nc23)c(-c2nnn[nH]2)c1S(N)(=O)=O [Example 201, (S)—N^1-(1-amino-3-hydroxypropan-2-yl)-4-(2-aminobenzo[d]thiazol-4-yl)-3-(1H-tetrazol-5-yl)benzene-1,2-disulfonamide] | 1.563 µM | 3.125 µM | 1.563 µM | 0.50 | 0.125 nM | 0.109 nM | 0.0199 nM | 0.7813 µM | 1.563 µM | – |
| NC[C@H](CO)NS(=O)(=O)c1ccc(-c2cccc3sc(N)nc23)c(-c2nnn[nH]2)c1S(N)(=O)=O [Example 202, (R)—N^1-(1-amino-3-hydroxypropan-2-yl)-4-(2-aminobenzo[d]thiazol-4-yl)-3-(1H-tetrazol-5-yl)benzene-1,2-disulfonamide] | 3.125 µM | 3.125 µM | 1.563 µM | 1.00 | 0.328 nM | 0.713 nM | 0.124 nM | 1.563 µM | 1.563 µM | – |
| NCCOCCNS(=O)(=O)c1ccc(-c2cccc3sc(N)nc23)c(-c2nnn[nH]2)c1S(N)(=O)=O [Example 203, 4-(2-aminobenzo[d]thiazol-4-yl)-N^1-(2-(2-aminoethoxy)ethyl)-3-(1H-tetrazol-5-yl)benzene-1,2-disulfonamide] | 3.125 µM | 3.125 µM | 1.563 µM | 0.50 | – | 0.199 nM | 0.05 nM | 0.7813 µM | 1.563 µM | 0.185 nM |
| NCCNC(=O)c1cccc(-c2ccc(S(=O)(=O)NCCN)c(S(N)(=O)=O)c2-c2nn[nH]n2)c1N [Example 204, 2-amino-N-(2-aminoethyl)-4′-(N-(2-aminoethyl)sulfamoyl)-5′-sulfamoyl-6′-(2H-tetrazol-5-yl)biphenyl-3-carboxamide] | 1.563 µM | 1.563 µM | 1.563 µM | 1.00 | – | 2.56 nM | 0.52 nM | 0.7813 µM | 0.7813 µM | 0.226 nM |
| Nc1nc2c(-c3ccc(S(=O)(=O)N4CC[C@@H](F)[C@H](N)C4)c(S(N)(=O)=O)c3-c3nn[nH]n3)cccc2[nH]1 [Example 205, 3-(2-amino-1H-benzo[d]imidazol-4-yl)-6-(((3R,4R)-3-amino-4-fluoropiperidin-1-yl)sulfonyl)-2-(2H-tetrazol-5-yl)benzenesulfonamide] | 1.563 µM | 3.125 µM | 3.125 µM | 8.00 | – | 5.89 nM | 1.2 nM | 12.5 µM | 1.563 µM | 3.63 nM |
| Nc1nc2c(-c3ccc(S(=O)(=O)NCC4COCCN4)c(S(N)(=O)=O)c3-c3nn[nH]n3)cccc2[nH]1 (stereo not drawn) [Example 206, 4-(2-amino-1H-benzo[d]imidazol-4-yl)-N1-(morpholin-3-ylmethyl)-3-(2H-tetrazol-5-yl)benzene-1,2-disulfonamide] | 0.3906 µM | 1.563 µM | 1.563 µM | 2.00 | 0.211 nM | 0.498 nM | 0.0729 nM | 3.125 µM | 1.563 µM | – |
| Nc1nc2c(-c3ccc(S(=O)(=O)NCC4CCN4)c(S(N)(=O)=O)c3-c3nn[nH]n3)cccc2[nH]1 (stereo not drawn) [Example 207, 4-(2-amino-1H-benzo[d]imidazol-4-yl)-N1-(azetidin-2-ylmethyl)-3-(2H-tetrazol-5-yl)benzene-1,2-disulfonamide] | 3.125 µM | 3.125 µM | 1.563 µM | 2.00 | 0.69 nM | 0.999 nM | 0.274 nM | 3.125 µM | 1.563 µM | – |
| C[C@H](N)CC(=O)NS(=O)(=O)c1ccc(-c2cccc3[nH]c(N)nc23)c(-c2nn[nH]n2)c1S(N)(=O)=O [Example 208, (S)-3-amino-N-((4-(2-amino-1H-benzo[d]imidazol-4-yl)-2-sulfamoyl-3-(2H-tetrazol-5-yl)phenyl)sulfonyl)butanamide] | 1.563 µM | 6.25 µM | 3.125 µM | 1.00 | – | 3.12 nM | 0.449 nM | 3.125 µM | 3.125 µM | 1.23 nM |
| Nc1ncccc1-c1ccc(S(=O)(=O)N[C@@H]2CCNC2)c(S(N)(=O)=O)c1-c1nn[nH]n1 [Example 209, (R)-4-(2-aminopyridin-3-yl)-N^1-(pyrrolidin-3-yl)-3-(2H-tetrazol-5-yl)benzene-1,2-disulfonamide] | 0.293 µM | 1.563 µM | 0.7813 µM | 1.33 | – | 3.1 nM | 0.148 nM | 1.563 µM | 1.172 µM | 0.177 nM |
| NCC(CN)NS(=O)(=O)c1ccc(-c2cccnc2N)c(-c2nn[nH]n2)c1S(N)(=O)=O [Example 210, 4-(2-aminopyridin-3-yl)-N1-(1,3-diaminopropan-2-yl)-3-(2H-tetrazol-5-yl)benzene-1,2-disulfonamide] | 0.1953 µM | 3.125 µM | 0.7813 µM | 2.00 | – | 1.5 nM | 0.126 nM | 3.125 µM | 1.563 µM | 0.197 nM |
| CC(C)(CN)NS(=O)(=O)c1ccc(-c2cccnc2N)c(-c2nn[nH]n2)c1S(N)(=O)=O [Example 211, N1-(1-amino-2-methylpropan-2-yl)-4-(2-aminopyridin-3-yl)-3-(2H-tetrazol-5-yl)benzene-1,2-disulfonamide] | 1.563 µM | 6.25 µM | 3.125 µM | 4.00 | – | 2.25 nM | 0.156 nM | 12.5 µM | 3.125 µM | 0.182 nM |
| NC[C@H](N)CNS(=O)(=O)c1ccc(-c2cccnc2N)c(-c2nn[nH]n2)c1S(N)(=O)=O [Example 213, (S)-4-(2-aminopyridin-3-yl)-N1-(2,3-diaminopropyl)-3-(2H-tetrazol-5-yl)benzene-1,2-disulfonamide] | 0.3906 µM | 1.563 µM | 0.7813 µM | 2.00 | – | 1.54 nM | 0.0759 nM | 3.125 µM | 1.563 µM | 0.113 nM |
